The values that follow come from patent US7906516B2, “Carbonyl compounds” (Merck Patent GmbH, priority 2003, dated 2011).

TF/FVIIa, sequence (P08709 213-466 limits assumed): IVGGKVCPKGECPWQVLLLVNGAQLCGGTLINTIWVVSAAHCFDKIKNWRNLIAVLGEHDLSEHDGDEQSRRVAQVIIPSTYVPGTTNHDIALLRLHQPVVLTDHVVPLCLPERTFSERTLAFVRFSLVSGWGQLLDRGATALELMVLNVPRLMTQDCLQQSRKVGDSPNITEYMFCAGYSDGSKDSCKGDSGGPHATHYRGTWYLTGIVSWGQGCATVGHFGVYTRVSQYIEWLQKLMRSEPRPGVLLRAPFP
TF/FVIIa, sequence (P08709 61-212 partner limits assumed): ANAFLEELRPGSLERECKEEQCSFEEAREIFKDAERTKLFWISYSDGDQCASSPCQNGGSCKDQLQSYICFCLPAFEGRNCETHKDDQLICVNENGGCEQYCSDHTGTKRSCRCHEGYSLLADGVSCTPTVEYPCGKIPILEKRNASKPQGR
TF/FVIIa, sequence (P13726 33-295 partner): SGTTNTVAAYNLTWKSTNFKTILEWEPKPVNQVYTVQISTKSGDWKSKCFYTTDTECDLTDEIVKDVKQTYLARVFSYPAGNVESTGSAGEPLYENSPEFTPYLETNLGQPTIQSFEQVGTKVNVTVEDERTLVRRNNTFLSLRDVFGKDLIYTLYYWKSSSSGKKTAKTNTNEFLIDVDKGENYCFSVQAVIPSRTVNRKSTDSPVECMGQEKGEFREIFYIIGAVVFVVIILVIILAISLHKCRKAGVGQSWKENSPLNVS

The target of the first data set is FXa (Homo sapiens, UniProt P00742). The experiment in a line: Factor Xa inhibition (FXa-IC50). It counts as biochemical.
FXa, sequence (P00742 235-488 limits assumed): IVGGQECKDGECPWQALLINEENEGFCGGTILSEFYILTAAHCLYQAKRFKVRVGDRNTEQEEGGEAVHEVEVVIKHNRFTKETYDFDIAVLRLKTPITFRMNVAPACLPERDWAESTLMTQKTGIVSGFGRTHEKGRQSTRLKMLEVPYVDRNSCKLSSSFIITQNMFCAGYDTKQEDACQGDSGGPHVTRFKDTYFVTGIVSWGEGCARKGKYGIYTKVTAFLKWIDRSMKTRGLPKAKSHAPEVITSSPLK
FXa, sequence (P00742 41-179 partner limits assumed): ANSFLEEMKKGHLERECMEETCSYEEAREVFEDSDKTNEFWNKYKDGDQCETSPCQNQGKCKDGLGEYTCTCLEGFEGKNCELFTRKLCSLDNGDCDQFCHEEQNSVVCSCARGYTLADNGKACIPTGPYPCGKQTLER
As a reminder, the IC50 is the concentration that inhibits the measured activity by half. For the compound `O=C(Nc1ccc(N2CCOCC2=O)cc1)[C@H]1COCN1C(=O)Nc1ccc(Cl)cc1` [Compound A2, 3-N-[(4-chlorophenyl)]-4-N-{[4-(3-oxomorpholin-4-yl)phenyl]}-(R)-oxazolidine-3,4-dicarboxamide], the IC50 came to 27 nM.

A further data set addresses TF/FVIIa (Homo sapiens, UniProt P08709). The experiment in a line: TF/factor VIIa inhibition (TF/FVIIa-IC50). It counts as biochemical.
`O=C(Nc1ccc(N2CCOCC2=O)cc1)[C@H]1CCCN1C(=O)c1ccc(Cl)s1` [AB1, N-[4-(3-oxomorpholin-4-yl)phenyl]-(R)-1-(5-chlorothiophene-2-carbonyl)-pyrrolidine-2-carboxamide] yielded an IC50 of 3900 nM.

`O=C(Nc1ccc(N2CCOCC2=O)cc1)[C@H]1CCCN1C(=O)Nc1ccc(Cl)cc1` [Compound A1, 1-N-[(4-chlorophenyl)]-2-N-{[4-(3-oxomorpholin-4-yl)phenyl]}-(R)-pyrrolidine-1,2-dicarboxamide] had a half-maximal inhibitory concentration (IC50) of 23 nM.

Test system in a further data set: not given
Test: not given
Broadly, the melting point is the temperature, or range, at which the solid turns liquid. The compound `O=C1C[C@H](C(=O)Nc2ccc(N3CCOCC3=O)cc2)N(C(=O)Nc2ccc(Cl)cc2)C1` registered a melting point of 154 °C.

Turning to `CCO[C@@H]1C[C@H](C(=O)Nc2ccc(N3CCOCC3=O)c(C)c2)N(C(=O)Nc2ccc(Cl)cc2)C1`, the melting point stood at 117 °C.

Turning to `CC(C)C(=O)O[C@@H]1C[C@H](C(=O)Nc2ccc(N3CCOCC3=O)cc2)N(C(=O)Nc2ccc(Cl)cc2)C1`, the melting point was determined as 129 °C.

As for `O=C(Nc1ccc(N2CCOCC2=O)cc1)[C@H]1C[C@@H](O)CN1C(=O)Cc1ccc(Cl)cc1`, the melting point amounted to 141 °C.

Regarding `O=C(NC1CCC(N2CCOCC2=O)CC1)[C@H]1C[C@@H](O)CN1C(=O)Nc1ccc(Cl)cc1` (stereo partly shown), the melting point is 245 °C.

The compound `O=C(Nc1ccc(N2CCOCC2=O)cc1)[C@H]1C[C@@H](O)CN1C(=O)/C=C/c1ccc(Cl)s1` displayed a melting point of 151 °C.

`O=C(Nc1ccc(N2CCOCC2=O)cc1)[C@H]1CCCN1C(=O)c1ccc(Cl)s1` [AB1, N-[4-(3-oxomorpholin-4-yl)phenyl]-(R)-1-(5-chlorothiophene-2-carbonyl)-pyrrolidine-2-carboxamide] yielded a melting point of 195 °C.

The compound `CO[C@@H]1C[C@H](C(=O)Nc2ccc(N3CCOCC3=O)cc2)N(C(=O)Nc2ccc(Cl)cc2)C1` displayed a melting point of 133 °C.

For the compound `O=C(Nc1ccc(N2CCOCC2=O)cc1)[C@H]1C=CCN1C(=O)Nc1ccc(Cl)cc1`, the melting point stood at 245 °C.

With `O=C(Nc1ccc(N2CCOCC2=O)cc1)[C@H]1CCCN1C(=O)Nc1ccc(Cl)cc1` [Compound A1, 1-N-[(4-chlorophenyl)]-2-N-{[4-(3-oxomorpholin-4-yl)phenyl]}-(R)-pyrrolidine-1,2-dicarboxamide], the melting point is 227.6 °C.
